This passage reports IC50 results from patent US20220372040A1, “METTL3 MODULATORS” (Accent Therapeutics, Inc., priority 2020, published 2022).

For one experiment, the target named is T1, METTL16 (Homo sapiens, UniProt Q86W50).
T1 sequence (Q86W50 1-562): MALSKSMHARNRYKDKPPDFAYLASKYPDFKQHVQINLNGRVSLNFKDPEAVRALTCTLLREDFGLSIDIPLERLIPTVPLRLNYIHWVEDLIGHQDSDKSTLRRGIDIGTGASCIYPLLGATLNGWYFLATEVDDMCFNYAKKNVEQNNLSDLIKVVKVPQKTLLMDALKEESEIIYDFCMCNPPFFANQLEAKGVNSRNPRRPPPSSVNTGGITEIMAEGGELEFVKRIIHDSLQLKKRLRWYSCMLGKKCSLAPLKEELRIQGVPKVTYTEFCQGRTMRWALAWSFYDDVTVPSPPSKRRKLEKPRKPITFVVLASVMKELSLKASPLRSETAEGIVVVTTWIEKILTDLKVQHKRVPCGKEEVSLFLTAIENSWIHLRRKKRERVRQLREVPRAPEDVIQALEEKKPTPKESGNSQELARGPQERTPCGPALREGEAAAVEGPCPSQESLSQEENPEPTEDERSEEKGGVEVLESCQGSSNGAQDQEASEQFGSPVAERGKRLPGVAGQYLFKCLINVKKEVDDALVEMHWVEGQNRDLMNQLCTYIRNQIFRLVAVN
The experiment in a line: METTL16 assay (3H-SAM flashplate scintillation). It counts as biochemical. Conditions: METTL16 100 nM, RNA 50 nM, 3H-SAM 200 nM, SAM 800 nM, 20 min. The procedure, abridged: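 Radiometric methyltransferase reaction at ambient temperature in 20 mM HEPES pH 7.5, 50 mM KCl, 1 mM DTT, with 100 nM enzyme preincubated 5 min with compound. It was started with 50 nM 3′-biotinylated RNA, 200 nM 3H-SAM plus 800 nM cold SAM, run 20 min, then quenched with excess cold SAM. Product was captured on streptavidin flashplates and scintillation-counted.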

The target in the next experiment is PRMT5-MEP50 (Homo sapiens, UniProt O14744). The experiment in a line: PRMT5 assay (3H-SAM flashplate scintillation). The note with it: PRMT5-MEP50 2.5 nM, histone H4 peptide 100 nM, 3H-SAM 250 nM, 60 min. Type of experiment: biochemical. In short, it runs like this: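 PRMT5-MEP50 (2.5 nM final) preincubated 5 min with compound, then reacted 60 min at ambient temperature with 100 nM biotinylated N-acetyl histone H4 peptide and 250 nM 3H-SAM in 20 mM Tris-HCl pH 8.0, 1 mM DTT, 0.01% Tween. Quenched with 15 μM cold SAM; methylated peptide captured on streptavidin flashplates, scintillation counted.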

The next experiment has as its target METTL3/METTL14 (Homo sapiens, UniProt Q86U44). The experiment in a line: METTL3-14 standard enzyme assay (3H-SAM flashplate scintillation). It counts as biochemical. Conditions: METTL3/METTL14 2.5 nM, RNA 100 nM, 3H-SAM 100 nM, 30 min. The procedure, abridged:
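METTL3/METTL14 (2.5 nM final) preincubated 5 min with compound in 20 mM HEPES pH 7.5, 50 mM KCl, 250 μM MgCl2, 1 mM DTT, ambient temperature; started with 100 nM 3′-biotinylated RNA (UCUGGACUAAA) and 100 nM 3H-SAM. After 30 min, quenched with 15 μM cold SAM; methylated RNA captured on streptavidin flashplates and counted by scintillation.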

Experiment [1] has as its system m^6 A in cellular mRNA of MOLM-13 cells. Description: m^6 A-mRNA LC-MS/MS assay (m^6 A cellular assay). It counts as cell-based. The note with it: Homo sapiens, 24 hours incubation, LC-MS/MS of m^6 A/A in mRNA. As to the method:
m^6 A-mRNA LC-MS/MS Assay
5×10^6 MOLM-13 (DSMZ) cells were seeded into 10 cm dishes in RPMI 1640 media containing 10% fetal bovine serum and placed in a humidified tissue culture incubator at 37° C. overnight. Compounds were resuspended in 100% DMSO and dosed into each dish at a fixed concentration to comprise an 8-point dose response with a 4-fold serial dilution ranging from 25 μM to 1.5 nM in 0.25% DMSO final and allowed to incubate for 24 hours in a humidified tissue culture incubator at 37° C. Cells were harvested by centrifugation followed by mRNA extraction using DTRECT Dynabeads mRNA DTRECT kit (Life Technologies). mRNA was quantified on NanoDrop spectrophotometer (Thermo Fisher Scientific) and digested into single nucleosides using Nucleoside Digestion Mix (New England Biolabs). Nucleosides are quantified with retention time on a BEH […] column (Waters) and the nucleoside-to-base ion mass transition of 282.1-150.1 (m^6 A) and 268-136 (A) on an API 6500+ triple quadrupole mass spectrometer. Quantification is performed in comparison with the standard curve, obtained from pure nucleoside standards (Selleck Chemicals) running with the same batch of samples. Percentage m^6 A in cellular mRNA is calculated as 100*(m^6 A/A).

In another experiment the test system is MOLM-13 cells. Description: MOLM-13 48 Hour cell proliferation assay (Cell Titer-Glo). It counts as cell-based. Conditions: Homo sapiens. As to the method: MOLM-13 48 Hour Cell Proliferation Assay
MOLM-13 (DSMZ) cells were seeded at 1000 cells per well in a volume of 44 μL in a Falcon 384-well tissue culture treated clear bottom microplate in RPMI 1640 media containing 10% fetal bovine serum using a Multidrop Combi (ThermoFisher Scientific). Cells were incubated overnight at 37° C. in a humidified tissue culture incubator. The Mosquito® HTS Liquid Handler was used to make a compound/media intermediate plate by aliquoting […] of compound from the initial compound dilution plate (concentrations ranging from 10.0 mM to 38.0 nM in 100% DMSO) into a V bottom 384-well screen matrix plate containing 49 µL of media containing the appropriate serum (50-fold dilution, 2% DMSO). The Apricot liquid handling system was used to transfer […] compounds from the intermediate plate into the Falcon 384-well tissue culture plate containing 44 μL cells (10-point, 4-fold dilution spanning concentrations 25.0 μM to […], 0.25% DMSO final), and placed in a humidified tissue culture incubator at 37° C. After 48 hours, 25 μL of Cell Titer-Glo reagent (Promega) was added to each well using a Multidrop Combi. The plate was protected from light and placed on an IKA plate shaker for at 300 rpm for 10 minutes at room temperature. The plate was read on an EnVision plate reader (Perkin Elmer) using the Ultra Sensitive Luminescence protocol. Data analysis was performed by normalizing the raw luminescence units to an average of the positive control values for staurosporine (100% cell death) and the negative control values for DMSO (0% cell death). An IC50 was calculated using a 4-parameter logistic nonlinear regression model in GraphPad Prism.

PRMT5-MEP50, sequence (O14744 whole entry): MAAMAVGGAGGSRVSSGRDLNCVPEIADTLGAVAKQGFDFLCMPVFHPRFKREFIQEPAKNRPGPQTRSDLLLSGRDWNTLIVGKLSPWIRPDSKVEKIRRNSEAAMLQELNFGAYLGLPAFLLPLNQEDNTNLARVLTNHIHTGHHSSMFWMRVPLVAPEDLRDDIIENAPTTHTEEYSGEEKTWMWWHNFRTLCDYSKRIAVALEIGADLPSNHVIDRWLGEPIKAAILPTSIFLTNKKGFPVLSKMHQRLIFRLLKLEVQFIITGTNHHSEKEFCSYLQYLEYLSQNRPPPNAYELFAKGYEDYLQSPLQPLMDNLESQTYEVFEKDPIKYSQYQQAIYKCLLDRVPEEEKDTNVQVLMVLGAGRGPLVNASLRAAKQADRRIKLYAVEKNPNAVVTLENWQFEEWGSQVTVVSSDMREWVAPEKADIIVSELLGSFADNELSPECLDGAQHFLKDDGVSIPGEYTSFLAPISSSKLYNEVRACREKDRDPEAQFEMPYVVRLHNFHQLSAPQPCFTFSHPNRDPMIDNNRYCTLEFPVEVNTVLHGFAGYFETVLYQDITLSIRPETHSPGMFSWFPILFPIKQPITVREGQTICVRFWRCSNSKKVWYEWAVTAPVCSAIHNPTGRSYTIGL
PRMT5-MEP50, sequence (Q9BQA1 whole entry partner): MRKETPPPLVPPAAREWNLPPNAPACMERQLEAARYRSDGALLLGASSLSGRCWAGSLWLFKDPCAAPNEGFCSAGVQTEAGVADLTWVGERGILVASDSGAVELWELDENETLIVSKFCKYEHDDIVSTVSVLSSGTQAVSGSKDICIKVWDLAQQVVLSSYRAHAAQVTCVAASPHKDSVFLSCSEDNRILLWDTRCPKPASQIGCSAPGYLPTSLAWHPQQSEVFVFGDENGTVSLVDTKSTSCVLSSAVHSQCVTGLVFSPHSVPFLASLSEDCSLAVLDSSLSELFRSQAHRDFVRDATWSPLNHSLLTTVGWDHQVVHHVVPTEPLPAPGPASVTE
METTL3/METTL14, sequence (Q86U44 whole entry, species assumed): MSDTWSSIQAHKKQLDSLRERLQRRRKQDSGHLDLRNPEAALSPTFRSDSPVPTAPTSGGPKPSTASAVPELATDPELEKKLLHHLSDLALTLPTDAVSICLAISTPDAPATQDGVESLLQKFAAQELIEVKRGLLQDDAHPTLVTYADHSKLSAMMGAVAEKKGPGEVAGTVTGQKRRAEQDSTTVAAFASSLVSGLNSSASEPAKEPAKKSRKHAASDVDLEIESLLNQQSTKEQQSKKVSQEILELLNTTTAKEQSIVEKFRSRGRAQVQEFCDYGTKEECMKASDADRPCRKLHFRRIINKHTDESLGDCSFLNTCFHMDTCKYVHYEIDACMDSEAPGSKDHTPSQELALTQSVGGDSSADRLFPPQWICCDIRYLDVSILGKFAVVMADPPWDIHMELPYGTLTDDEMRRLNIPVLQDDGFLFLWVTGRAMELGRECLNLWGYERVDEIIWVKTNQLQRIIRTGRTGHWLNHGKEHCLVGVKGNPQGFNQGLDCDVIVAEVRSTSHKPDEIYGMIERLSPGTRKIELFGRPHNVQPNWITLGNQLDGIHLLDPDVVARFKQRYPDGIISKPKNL
METTL3/METTL14, sequence (Q9HCE5 whole entry partner, species assumed): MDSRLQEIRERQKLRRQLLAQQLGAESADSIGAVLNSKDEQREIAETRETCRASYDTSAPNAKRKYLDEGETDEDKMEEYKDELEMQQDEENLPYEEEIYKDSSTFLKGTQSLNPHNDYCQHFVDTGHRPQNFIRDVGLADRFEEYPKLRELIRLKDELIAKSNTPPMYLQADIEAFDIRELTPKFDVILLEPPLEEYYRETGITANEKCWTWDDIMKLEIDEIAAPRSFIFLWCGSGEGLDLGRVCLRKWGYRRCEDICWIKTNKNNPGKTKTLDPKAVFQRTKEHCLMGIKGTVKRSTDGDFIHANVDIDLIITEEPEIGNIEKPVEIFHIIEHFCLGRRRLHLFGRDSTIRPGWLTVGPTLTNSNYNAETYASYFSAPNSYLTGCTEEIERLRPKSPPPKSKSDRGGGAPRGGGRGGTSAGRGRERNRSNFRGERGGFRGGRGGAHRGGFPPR

Regarding `CCNc1ccc2ccc(OCc3cncc(-n4cc(Cl)c5c(N)ncnc54)c3)cc2n1` [Compound I-59], the IC50 against METTL16 is more than 1 µM; against PRMT5-MEP50 it was more than 1 µM; at METTL3/METTL14, less than 0.01 µM; in experiment [1], 1 to 10 µM; in the experiment on MOLM-13 cells, 1 to 10 µM.

As for `CNc1ccc2ccc(OCc3cncc(-n4ccc5c(N)ncnc54)c3)cc2n1` [Compound I-60], the IC50 on METTL16 is more than 1 µM; against PRMT5-MEP50, more than 1 µM; on METTL3/METTL14 it was less than 0.01 µM; in experiment [1], 1 to 10 µM; in the experiment on MOLM-13 cells it was less than 1 µM.
